{
  "source": "patent US20240052028A1",
  "about": "“ENHANCEMENT OF ANTI-TUMOR PHAGOCYTOSIS” (The Board of Trustees of the Leland Stanford Junior …, priority 2020, published 2024)",
  "format_in_all_cases": "cell-based, mouse",
  "key": {"APMAP^KO Ramos cells": {"system": "APMAP^KO Ramos cells", "test": "Time-lapse phagocytosis assay, uptake of pHrodo-labeled APMAP^KO Ramos cells by J774 macrophages with anti-CD20 antibodies and GPR84 agonists", "settings": "at high concentrations of agonist, anti-CD20 antibodies (FIG. 12C)", "experimental": "(§1) Time-lapse microscopy assay for phagocytosis J774 cells were lifted by scraping, counted, and plated in 24 well tissue culture plates at a density of 100,000 cells per well in 0.5 ml media 48 h prior to the start of the experiment. At 24 h after plating, media was aspirated and replaced with fresh media containing 10 ng ml^−1 lipopolysaccharide (LPS) (Sigma). On the day of the experiment, target cells that had been transduced with sgRNAs, co-expressed with GFP and PuroR, and selected with puromycin as described above, were lifted, pelleted, and counted. Cells were washed three times in dPBS, incubated in dPBS containing 6.6 ng ml-1 pHrodo-Red succinimidyl ester (Thermo Fisher) at a cell concentration of 1M ml^−1 for 30 minutes, washed once, and resuspended in DMEM supplemented with 2 mM glutamine, 100 units ml^−1 penicillin, […] streptomycin and 10% heat-inactivated FCS, and containing anti-CD20, anti-CD30, and/or anti-CD47 antibodies, as indicated, at a cell concentration of 1M ml^−1. 220 μl of cell suspensions was added to each well. Plates were transferred to an incubator and imaged every 30 or 60 minutes using an Incucyte (Essen). Total red intensity for each well, averaged over 16 images per well, was calculated after applying a threshold for red intensity that excluded most or all cells at the first time point using top-hat background subtraction. Reported values represent the mean total red fluorescence intensity at each timepoint, minus the total red fluorescence at the initial timepoint (to remove signal from occasional autofluorescent debris), normalized to the initial total green fluorescence signal (to account for small variations in target cell density), of duplicate, triplicate, or quadruplicate wells, as indicated in the legend. […]"}, "Safe^KO Ramos cells": {"system": "Safe^KO Ramos cells", "test": "Time-lapse phagocytosis assay, uptake of pHrodo-labeled Safe^KO Ramos cells by J774 macrophages with anti-CD20 antibodies and GPR84 agonists", "settings": "anti-CD20 antibodies, GPR84 agonist added (FIG. 4D)", "experimental": "as §1"}, "[1]": {"system": "Ramos Burkitt lymphoma cells", "test": "ADCP of Ramos Burkitt lymphoma cells by LPS-activated J774 macrophages", "settings": "in the presence of LPS-activated J774 macrophages", "experimental": "For the screens, cells were split into two conditions, each in duplicate: an untreated control group and ADCP treated group. In the ADCP group, for each round of treatment, Ramos cells were incubated with J774 macrophages, which had been seeded into 15 cm plates 48 h prior (at 5 M cells per plate) and treated with LPS (10 ng ml^−1) starting 24 h prior, in the presence of anti-CD20 antibodies (50 ng ml^−1) (CRISPRko screen) or both anti-CD20 antibodies (50 ng ml^−1) and anti-CD47 antibodies (100 ng ml-1) (CRISPRa screen). 25 M Ramos cells were added to each plate and incubated with J774 macrophages for 24 h, and were then removed from the macrophage-containing plates via two rounds of washing with complete RPMI media. Ramos cells were then allowed to recover in T-150 flasks for 24-72 h before the next round of treatment. At the end of the screen, 300 million cells were recovered from each condition and pelleted by centrifugation. […] The sgRNA sequences were amplified and sequenced using an Illumina NextSeq with ˜40 million reads per condition; ˜200× coverage per library element). […]\nTo establish a scalable platform for genetic screening for regulators of ADCP, conditions for antibody-stimulated uptake of cancer cells by macrophage cell lines were optimized, which, unlike primary macrophages, can readily be cultured at the ultra-high scales necessary for screening. […]"}},
  "data": [
    {"molecule": "CCCCCCCCCC(=O)O", "note": "[capric acid]", "values": [
      {"measurement": "uptake of APMAP^KO cells", "setting": "APMAP^KO Ramos cells", "value": "inhibited"},
      {"measurement": "antibody-dependent phagocytosis of Safe^KO cells", "setting": "Safe^KO Ramos cells", "value": "stimulated"}
    ]},
    {"molecule": "CCCCCCSc1nc(O)cc(=O)[nH]1", "note": "[ZQ-16]", "values": [
      {"measurement": "uptake of APMAP^KO cells", "setting": "APMAP^KO Ramos cells", "value": "inhibited"},
      {"measurement": "antibody-dependent phagocytosis of Safe^KO cells", "setting": "Safe^KO Ramos cells", "value": "stimulated"}
    ]},
    {"molecule": "CCCCCCCCNc1cc(=O)[nH]c(=O)[nH]1", "note": "[6-OAU, (octylamino) pyrimidine-2,4(1H,3H)-dione]", "values": [
      {"measurement": "uptake of APMAP^KO cells", "setting": "APMAP^KO Ramos cells", "value": "inhibited"},
      {"measurement": "antibody-dependent phagocytosis of Safe^KO cells", "setting": "Safe^KO Ramos cells", "value": "stimulated"}
    ]},
    {"molecule": "rituximab-biosimilar anti-CD20 antibodies: rituximab-biosimilar anti-CD20 antibodies used to drive ADCP", "values": [
      {"measurement": "phagocytosis of Ramos cells", "setting": "[1]", "value": "high rates of phagocytosis"}
    ]}
  ]
}
